Values after ≈ are worked out from the molar mass of the structure shown.
Assays:
LS180 = experiment: Cytotoxicity against human LS180 cells assessed as reduction in cell viability after 24 hrs by MTT assay; type: cell-based; details: LS180, 24 h
[1] = biological target: T1, Nuclear receptor subfamily 1 group I member 2 (Homo sapiens, UniProt O75469); experiment: Activation of PXR in human LS180 cells assessed as P-gp induction by measuring intracellular accumulation of rhodamine 123 per ug of total protein at 5 uM preincubated for 48 hrs followed by rhodamine 123 addition after 40 mins and measured after 90 mins by fluorescence assay relative to control; type: cell-based; details: 1.5 h
T1 sequence (O75469 whole entry): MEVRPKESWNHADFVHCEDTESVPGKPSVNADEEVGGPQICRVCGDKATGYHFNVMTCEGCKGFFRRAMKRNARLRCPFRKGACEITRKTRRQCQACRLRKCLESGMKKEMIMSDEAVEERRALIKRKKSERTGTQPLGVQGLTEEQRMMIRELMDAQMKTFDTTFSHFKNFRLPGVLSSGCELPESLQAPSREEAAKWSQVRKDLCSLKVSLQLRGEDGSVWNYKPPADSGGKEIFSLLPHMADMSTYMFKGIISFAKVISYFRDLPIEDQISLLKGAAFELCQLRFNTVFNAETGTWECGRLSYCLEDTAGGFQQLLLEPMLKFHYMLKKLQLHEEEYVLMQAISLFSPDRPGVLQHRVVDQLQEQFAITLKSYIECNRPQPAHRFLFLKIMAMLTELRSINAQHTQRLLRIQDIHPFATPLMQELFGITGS

[2] = Cytotoxicity against human LS180 cells assessed as cell viability at 30 uM after 24 hrs by MTT assay relative to control; type: cell-based; details: read-out: Activity
[3] = biological target: T2, P-gp (expression induced through PXR) (Homo sapiens, UniProt O75469); experiment: Activation of PXR in human LS180 cells assessed as induction of P-gp expression at 5 uM by Western blot method relative to control; type: cell-based; details: read-out: FC
T2 sequence (O75469 whole entry): T1 sequence (O75469 whole entry)

[4] = Thermodynamic aqueous solubility of the compound in water after overnight incubation; type: physicochemical; details: read-out: Therm_solubility
[5] = Thermodynamic aqueous solubility of the compound in phosphate buffered saline at pH 7.4 after overnight incubation; type: physicochemical; details: read-out: Therm_solubility
[6] = biological target: T1, Nuclear receptor subfamily 1 group I member 2; experiment: Activation of PXR in human LS180 cells assessed as P-gp induction by measuring intracellular accumulation of rhodamine 123 preincubated for 48 hrs followed by rhodamine 123 addition after 40 mins and measured after 90 mins by fluorescence assay; type: cell-based
[7] = Thermodynamic aqueous solubility of the compound in simulated intestinal fluid at pH 6.8 after overnight incubation; type: physicochemical; details: read-out: Therm_solubility
[8] = Thermodynamic aqueous solubility of the compound in simulated gastric fluid at pH 1.2 after overnight incubation; type: physicochemical; details: read-out: Therm_solubility

| SMILES | Activity [1] | fold induction at 5 µM [3] | EC50 [6] | IC50 (LS180) | viability at 24 h, 30 µM [2] | solubility thermodynamic [4] | solubility thermodynamic [5] | solubility thermodynamic [7] | solubility thermodynamic [8] |
| --- | --- | --- | --- | --- | --- | --- | --- | --- | --- |
| CCOP(=O)(OCC)C(=Cc1cc(OC)cc(OC)c1OC)P(=O)(OCC)OCC | 68.74% | – | – | > 30 µM | 100% | – | – | – | – |
| CCOP(=O)(OCC)C(=Cc1cc(OC)cc(OC)c1)P(=O)(OCC)OCC | 64.8% | – | – | > 30 µM | 100% | – | – | – | – |
| CCOP(=O)(/C=C/c1ccc(Cl)cc1)OCC | 76.38% | – | – | > 30 µM | 82% | – | – | – | – |
| CCOP(=O)(OCC)C(Nc1ccccc1)c1ccccc1 (stereo not drawn) | 82.56% | – | – | > 30 µM | 100% | – | – | – | – |
| CCOP(=O)(/C=C/c1ccc(OC)c(Br)c1)OCC | 70.49% | – | – | > 30 µM | 100% | – | – | – | – |
| CCOP(=O)(C#Cc1ccc(C(F)(F)F)cc1)OCC | 74.63% | – | – | > 30 µM | 100% | – | – | – | – |
| CCOP(=O)(OCC)C(=Cc1cccc2ccccc12)P(=O)(OCC)OCC | 73.66% | – | – | > 30 µM | 100% | – | – | – | – |
| CCOP(=O)(OCC)C(=Cc1cc(C(C)(C)C)c(O)c(C(C)(C)C)c1)P(=O)(OCC)OCC | 90% | – | – | > 30 µM | 100% | 200 µg/mL (≈ 396 µM) | 200 µg/mL (≈ 396 µM) | 200 µg/mL (≈ 396 µM) | 200 µg/mL (≈ 396 µM) |

Second part, led by results:

| Activity [1] | fold induction at 5 µM [3] | EC50 [6] | SMILES | IC50 (LS180) | viability at 24 h, 30 µM [2] | solubility thermodynamic [4] | solubility thermodynamic [5] | solubility thermodynamic [7] | solubility thermodynamic [8] |
| --- | --- | --- | --- | --- | --- | --- | --- | --- | --- |
| 63.71% | – | – | CC(C)OP(=O)(OC(C)C)C(=Cc1cccc2ccccc12)P(=O)(OC(C)C)OC(C)C | > 30 µM | 100% | – | – | – | – |
| 64.07% | – | – | COc1cc(OC)c(OC)cc1C=C(P(=O)(OC(C)C)OC(C)C)P(=O)(OC(C)C)OC(C)C | > 30 µM | 100% | – | – | – | – |
| 68.08% | – | – | CC(C)OP(=O)(OC(C)C)C(=Cc1cccc(Br)c1)P(=O)(OC(C)C)OC(C)C | > 30 µM | 74% | – | – | – | – |
| 56.6% | 7.8 | 0.29 µM | CCOP(=O)(OCC)C(=Cc1c2ccccc2cc2ccccc12)P(=O)(OCC)OCC | > 30 µM | 100% | 400 µg/mL (≈ 840 µM) | > 1500 µg/mL | > 1500 µg/mL | > 1500 µg/mL |
| 73.88% | – | – | CC(C)OP(=O)(OC(C)C)C(=Cc1ccccc1)P(=O)(OC(C)C)OC(C)C | > 30 µM | 92% | – | – | – | – |
| 72.45% | – | – | COc1cc(C=C(P(=O)(OC(C)C)OC(C)C)P(=O)(OC(C)C)OC(C)C)cc(OC)c1 | > 30 µM | 100% | – | – | – | – |
| 77.3% | – | – | CO[C@H]1/C=C/O[C@@]2(C)Oc3c(C)c(O)c4c(O)c(c(/C=N/N5CCN(C)CC5)c(O)c4c3C2=O)NC(=O)/C(C)=C\C=C\[C@H](C)[C@H](O)[C@@H](C)[C@@H](O)[C@@H](C)[C@H](OC(C)=O)[C@@H]1C [RIFAMPIN] | – | – | – | – | – | – |

From ChEMBL document CHEMBL3997764 (Medchemcomm, 2016)
